Read-outs that look alike come from different tables or passages of the source. Numbered stars: 1 amine (or outer) side, 2 acyl side, 3 side chain; on linkers, the order of the positions; unused ones are H or OH. Bridge positions count the residues as written; N and C are the ends. Square brackets hold non-standard residues; d marks the D form. Peptide text beside a SMILES is read from it. * marks the point of attachment. X1 = CN1C[C@H](CSCCN(CCSC[C@@H]2C[C@@H]3c4cccc5[nH]cc(c45)C[C@H]3N(C)C2)[C@H](CCCCN[*:2])C(=O)[*:1])C[C@@H]2c3cccc4[nH]cc(c34)C[C@H]21; X2 = CN1C[C@H](CSCC(=O)*)C[C@@H]2c3cccc4[nH]cc(c34)C[C@H]21; 4Pal = N[C@@H](Cc1ccncc1)C(=O)O
Columns and labels:
[1] = molecular target: T1, hDRD2 (Homo sapiens, UniProt P14416); assay: cell-based; set-up: host or cells: 'Cells expressing hDRD2'; settings: for Emax: read-out: hDRD2 %Emax ± SEM
T1 sequence (P14416 whole entry): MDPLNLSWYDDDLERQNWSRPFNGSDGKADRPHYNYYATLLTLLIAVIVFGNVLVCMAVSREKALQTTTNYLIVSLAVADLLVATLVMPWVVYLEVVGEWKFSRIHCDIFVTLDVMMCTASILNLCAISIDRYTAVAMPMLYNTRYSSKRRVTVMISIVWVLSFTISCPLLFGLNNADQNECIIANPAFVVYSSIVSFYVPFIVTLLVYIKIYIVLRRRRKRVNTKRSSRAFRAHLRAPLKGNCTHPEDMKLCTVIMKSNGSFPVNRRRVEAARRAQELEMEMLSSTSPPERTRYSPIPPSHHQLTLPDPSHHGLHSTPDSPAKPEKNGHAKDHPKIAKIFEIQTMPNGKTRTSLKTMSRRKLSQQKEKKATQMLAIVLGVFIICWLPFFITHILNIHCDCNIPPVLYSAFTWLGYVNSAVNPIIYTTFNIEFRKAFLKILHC
Method: (§1) The ability of select compounds according to the present invention to activate hSSTR2 and hDRD2 was determined by the intracellular calcium mobilization assay using FLIPR Calcium 4 assay kit (Molecular Devices).
(§2) Cells expressing hSSTR2 or hDRD2 were plated in 384-well microplates in tissue culture media and incubated for 16-24 hours at 37°C in a humidified atmosphere with 5% CO2. Medium was replaced by loading buffer containing Hank's buffered saline, 20 mM HEPES, 2.5 mM probenecid and Calcium 4 dye, and the plates were incubated at 37°C for 60 minutes.

[2] = molecular target: T2, hSSTR2 (Homo sapiens, UniProt P30874); assay: Somatostatin receptor radioligand binding assay (hSSTR2);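 note: radioligand displacement on membranes of CHO-K1 cells stably transfected with human SSTR2, specific binding taken as total minus binding left with 1000 nM SRIF-14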
T2 construct: host or cells: 'Cells expressing hSSTR2'
T2 sequence (P30874 whole entry): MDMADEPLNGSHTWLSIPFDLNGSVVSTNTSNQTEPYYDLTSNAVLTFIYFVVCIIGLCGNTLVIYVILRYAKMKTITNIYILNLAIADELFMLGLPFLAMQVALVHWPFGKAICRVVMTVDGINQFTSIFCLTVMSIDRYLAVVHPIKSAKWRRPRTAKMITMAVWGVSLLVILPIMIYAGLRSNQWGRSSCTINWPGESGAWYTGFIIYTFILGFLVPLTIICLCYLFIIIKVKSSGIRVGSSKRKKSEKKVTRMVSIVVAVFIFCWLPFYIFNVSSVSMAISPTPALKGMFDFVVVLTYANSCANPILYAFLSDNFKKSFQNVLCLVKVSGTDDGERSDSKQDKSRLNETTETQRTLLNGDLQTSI

[3] = molecular target: T1, hDRD2; assay: biochemical; assay type: binding; set-up: expressed in transfected cells; host or cells: CHO-K1, pcDNA3.1/GS, zeocin-selected clonal line; membranes
[4] = molecular target: T3, hSSTR1 (Homo sapiens, UniProt P30872); assay: Somatostatin receptor radioligand binding assay (hSSTR1)
T3 construct: expressed in transfected cells; host or cells: CHO-K1 (ATCC), pcDNA3.1, G418-selected clonal line; membranes
T3 sequence (P30872 whole entry): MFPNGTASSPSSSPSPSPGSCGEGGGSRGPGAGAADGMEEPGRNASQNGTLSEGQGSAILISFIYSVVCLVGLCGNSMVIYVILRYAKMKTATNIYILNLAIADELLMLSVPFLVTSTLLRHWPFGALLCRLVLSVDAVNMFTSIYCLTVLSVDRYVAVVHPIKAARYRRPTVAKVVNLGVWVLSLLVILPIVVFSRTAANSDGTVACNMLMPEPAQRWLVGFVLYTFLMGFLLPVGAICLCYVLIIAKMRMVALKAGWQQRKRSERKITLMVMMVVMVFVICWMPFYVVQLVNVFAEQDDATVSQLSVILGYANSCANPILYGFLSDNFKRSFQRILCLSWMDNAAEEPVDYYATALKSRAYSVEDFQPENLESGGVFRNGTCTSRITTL
Method: (§3) The affinities of a test compound for the human somatostatin receptors were determined by radioligand binding assays in CHO-K1 cells stably transfected with each of the human somatostatin receptor subtypes, hSSTR1-5. […] Clonal cell lines stably expressing each of the somatostatin receptors were obtained by transfection into CHO-K1 cells (ATCC) and subsequently selected with culture media containing 0.8 mg/mL of G418 (Life Technologies).
(§4) Membranes for in vitro receptor binding assays were obtained by the following procedures. […] The supernatant containing the plasma membranes was centrifuged at 100,000 x g for 30 minutes and the pellet was resuspended in buffer containing 20 mM glycine-glycine, 1 mM MgCl2, 250 mM sucrose, pH 7.2, for storage at -80°C.
(§5) For the SSTR1, 2 and 5 assays, membranes and various concentrations of test compounds were incubated in 96-well plates for 60 minutes at 25°C with 0.05 nM [^125I-Tyr^11]-SRIF-14 (for hSSTR1; PerkinElmer Life Science), 0.05 nM [^125I-Tyr]-seglitide (for hSSTR2; PerkinElmer Life Science) or 0.05 nM [^125I-Tyr]-[DPhe-cyclo(Cys-Tyr-DTrp-Lys-Val-Cys)-Thr-NH2] (for hSSTR5; PerkinElmer Life Science) in 50 mM HEPES, 0.2% BSA, 0.1 mM MgCl2, pH 7.5.
(§6) The incubations were terminated by rapid filtration through GF/C glass microfiber filter plates (pre-wet with 0.3% polyethyleneimine and 0.1 % BSA) using a 96-well cell harvester (Brandel). Plates were washed six times with 1 mL/well aliquots of ice-cold buffer containing 50 mM Tris buffer, pH 7.7. Specific binding was defined as the total radioligand bound minus the bound in the presence of 1000 nM SRIF-14.

[5] = molecular target: T4, hSSTR5 (Homo sapiens, UniProt P35346); assay: Somatostatin receptor radioligand binding assay (hSSTR5); settings: CHO-K1 cell membranes; 0.05 nM [125I-Tyr]-[DPhe-cyclo(Cys-Tyr-DTrp-Lys-Val-Cys)-Thr-NH2]; 60 minutes at 25°C; read-out: hSSTR5 Ki (nM) ± SEM
T4 construct: expressed in transfected cells; host or cells: CHO-K1 (ATCC), pcDNA3.1, G418-selected clonal line; membranes
T4 sequence (P35346 whole entry): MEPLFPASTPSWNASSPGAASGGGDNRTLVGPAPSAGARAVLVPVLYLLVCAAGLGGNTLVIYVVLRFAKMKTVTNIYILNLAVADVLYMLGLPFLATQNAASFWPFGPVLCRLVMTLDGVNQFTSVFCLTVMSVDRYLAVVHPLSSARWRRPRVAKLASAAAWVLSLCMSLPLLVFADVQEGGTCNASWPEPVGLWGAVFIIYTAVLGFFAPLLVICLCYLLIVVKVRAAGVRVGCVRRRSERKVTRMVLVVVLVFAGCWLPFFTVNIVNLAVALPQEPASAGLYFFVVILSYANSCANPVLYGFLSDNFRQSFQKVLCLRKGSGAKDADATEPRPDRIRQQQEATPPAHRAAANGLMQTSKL
Method: as §3, §4, §5, §6

[6] = molecular target: T2, hSSTR2; assay: Intracellular calcium mobilization assay (FLIPR Calcium 4), hSSTR2; assay type: cell-based; settings: for improvement in EC50 over Reference Compound A: p value (Student's t-test, one-tailed) < 0.05;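 for all read-outs here: agonist activity measured in cells expressing hSSTR2, seeded in 384-well plates, loaded with Calcium 4 dye, read-out as rise in intracellular calcium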
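Throughout, for Emax: agonist activity at human DRD2 in DRD2-expressing cells, read as intracellular calcium mobilization with a FLIPR Calcium 4 fluorescent dye.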
Method: as §1, §2

SMILES	EC50 [1] [nM]	Emax [1] [%]	Ki [2] [nM]	Ki [3] [nM]	Ki [4] [nM]	Ki [5] [nM]	EC50 [6] [nM]	Ki ([2]; CHO-K1 cell membranes, 0.05 nM [125I-Tyr]-seglitide, 60 minutes at 25°C, read-out: hSSTR2 Ki (nM) ± SEM) [nM]	Ki ([3]; CHO-K1 cell membranes, […] [3H]-spiperone, 60 minutes at 25°C, read-out: hDRD2 Ki (nM) ± SEM) [nM]	Ki ([4]; CHO-K1 cell membranes, 0.05 nM [125I-Tyr11]-SRIF-14, 60 minutes at 25°C, read-out: hSSTR1 Ki (nM) ± SEM) [nM]	improvement in EC50 over Reference Compound A ([6]; receptor not named)	EC50 value lower than that for Reference Compound A ([6]; ratio to Reference Compound A, receptor not named, figures fit hSSTR2)	improvement in EC50 and/or %Emax over Reference Compound B ([6]; receptor not named)
C[C@@H](O)[C@@H]1NC(=O)[C@H](CCCCN)NC(=O)[C@@H](Cc2c[nH]c3ccccc23)NC(=O)[C@H](Cc2ccccc2)NC(=O)[C@H](Cc2ccccc2)NC(=O)[C@H](CCCNC(=N)N)NC(=O)[C@H](NC[C@H](Cc2ccc(O)cc2)NC(=O)C[S+]([O-])C[C@@H]2C[C@@H]3c4cccc5[nH]cc(c45)C[C@H]3N(C)C2)CCCCNC(=O)[C@H](Cc2ccc(F)cc2)NC1=O (stereo partly drawn) [Compound 13, Dop1(SO)-Tyr-psi(CH2NH)-cyclo(DLys-Arg-Phe-Phe-DTrp-Lys-Thr-4FPhe)]	9.2 ± 2.7	93.9 ± 4.5	0.04 ± 0.02	32.5 ± 8.9	8.6	0.23	1.6 ± 0.1						
C[C@@H](O)[C@@H]1NC(=O)[C@H](CCCCN)NC(=O)[C@@H](Cc2c[nH]c3ccccc23)NC(=O)[C@H](Cc2ccccc2)NC(=O)[C@H](Cc2ccccc2)NC(=O)[C@H](CCCNC(=N)N)NC(=O)[C@H](NCC[S+]([O-])C[C@@H]2C[C@@H]3c4cccc5[nH]cc(c45)C[C@H]3N(C)C2)CCCCNC(=O)[C@H](Cc2ccc(F)cc2)NC1=O (stereo partly drawn) [Compound 14, Dop1(SO)-psi(CH2NH)-cyclo(DLys-Arg-Phe-Phe-DTrp-Lys-Thr-4FPhe)]	8.7 ± 1.7	103 ± 2.3	0.05 ± 0.01	76.5 ± 13.9	6	0.36	1.3 ± 0.1						
C[C@@H](O)[C@@H]1NC(=O)[C@H](CCCCN)NC(=O)[C@@H](Cc2c[nH]c3ccccc23)NC(=O)[C@H](Cc2ccncc2)NC(=O)[C@H](Cc2ccccc2)NC(=O)[C@H](CCCNC(=N)N)NC(=O)[C@H](NC[C@H](Cc2ccc(O)cc2)NC(=O)C[S+]([O-])C[C@@H]2C[C@@H]3c4cccc5[nH]cc(c45)C[C@H]3N(C)C2)CCCCNC(=O)[C@H](Cc2ccccc2)NC1=O (stereo partly drawn) [Compound 15, Dop1(SO)-Tyr-psi(CH2NH)-cyclo(DLys-Arg-Phe-4Pal-DTrp-Lys-Thr-Phe)]	7.4 ± 0.4	94.6 ± 0.8	0.02 ± 0.01	149 ± 11.3	64.4	0.08	1.6 ± 0.3						
C[C@@H](O)[C@@H]1NC(=O)[C@H](CCCCN)NC(=O)[C@@H](Cc2c[nH]c3ccccc23)NC(=O)[C@H](Cc2ccncc2)NC(=O)[C@H](Cc2ccccc2)NC(=O)[C@H](CCCNC(=N)N)NC(=O)[C@H](NC[C@H](CCCCNC(=O)C[S+]([O-])C[C@@H]2C[C@@H]3c4cccc5[nH]cc(c45)C[C@H]3N(C)C2)NC(=O)C[S+]([O-])C[C@@H]2C[C@@H]3c4cccc5[nH]cc(c45)C[C@H]3N(C)C2)CCCCNC(=O)[C@H](Cc2ccccc2)NC1=O (stereo partly drawn) [Compound 17, Dop1(SO)-Lys[Dop1(SO)]-psi(CH2NH)-cyclo(DLys-Arg-Phe-4Pal-DTrp-Lys-Thr-Phe)]	10.2 ± 2.2	96.9 ± 1.2	0.08 ± 0.05	67.6 ± 18.4	91.4	0.86	10.3 ± 2						
C[C@@H](O)[C@@H]1NC(=O)[C@H](CCCCN)NC(=O)[C@@H](Cc2c[nH]c3ccccc23)NC(=O)[C@H](Cc2ccncc2)NC(=O)[C@H](Cc2ccccc2)NC(=O)[C@H](CCCNC(=N)N)NC(=O)[C@H](NC(=O)CSC[C@@H]2C[C@@H]3c4cccc5[nH]cc(c45)C[C@H]3N(C)C2)CCCCNC(=O)[C@H](Cc2ccccc2)NC1=O [Compound 24, Dop1-cyclo(DLys-Arg-Phe-4Pal-DTrp-Lys-Thr-Phe)] (X2-[dK]RF[4Pal][dW]KTF; lactam 1-C)		87.8 ± 4				2.39		0.08 ± 0.01	175 ± 25.6	47.7 ± 30.7	statistically significant improvement in EC50	about 9 fold	
C[C@@H](O)[C@@H]1NC(=O)[C@H](CCCCN)NC(=O)[C@@H](Cc2c[nH]c3ccccc23)NC(=O)[C@H](Cc2ccncc2)NC(=O)[C@H](Cc2ccccc2)NC(=O)[C@H](CCCNC(=N)N)NC(=O)[C@H](NC(=O)CSC[C@@H]2C[C@@H]3c4cccc5[nH]cc(c45)C[C@H]3N(C)C2)CCCCNC(=O)[C@H](Cc2ccc(O)cc2)NC1=O [Compound 25, Dop1-cyclo(DLys-Arg-Phe-4Pal-DTrp-Lys-Thr-Tyr)] (X2-[dK]RF[4Pal][dW]KTY; lactam 1-C)	27 ± 3.3	82.5 ± 7.6	0.05 ± 0.01	272 ± 119	41.9 ± 17.6	0.95 ± 0.1	3.4 ± 1				statistically significant improvement in EC50		
C[C@@H](O)[C@@H]1NC(=O)[C@H](CCCCN)NC(=O)[C@@H](Cc2c[nH]c3ccccc23)NC(=O)[C@H](Cc2ccncc2)NC(=O)[C@H](Cc2ccccc2)NC(=O)[C@H](CCCNC(=N)N)NC(=O)[C@H](N(CCSC[C@@H]2C[C@@H]3c4cccc5[nH]cc(c45)C[C@H]3N(C)C2)CCSC[C@@H]2C[C@@H]3c4cccc5[nH]cc(c45)C[C@H]3N(C)C2)CCCCNC(=O)[C@H](Cc2ccccc2)NC1=O [Compound 29, bis[Dop1-psi(CH2N)]-cyclo(DLys-Arg-Phe-4Pal-DTrp-Lys-Thr-Phe)] (RF[4Pal][dW]KTF; linker N-C via X1)	254 ± 111	89 ± 4.5	0.14 ± 0.02	135 ± 66.1	26.7	2.37	12.1 ± 0.7				statistically significant improvement in EC50		
C[C@@H](O)[C@@H]1NC(=O)[C@H](CCCCN)NC(=O)[C@@H](Cc2c[nH]c3ccccc23)NC(=O)[C@H](Cc2ccccc2)NC(=O)[C@H](Cc2ccccc2)NC(=O)[C@H](CCCNC(=N)N)NC(=O)[C@H](NC[C@H](Cc2ccc(O)cc2)NC(=O)CSC[C@@H]2C[C@@H]3c4cccc5[nH]cc(c45)C[C@H]3N(C)C2)CCCCNC(=O)[C@H](Cc2ccccc2)NC1=O [Compound 32, Dop1-Tyr-psi(CH2NH)-cyclo(DLys-Arg-Phe-Phe-DTrp-Lys-Thr-Phe)]	35.6 ± 2.4	102 ± 12.8	0.28 ± 0.07	44 ± 1	5.3 ± 2.9	1.58	13.6 ± 3.4						statistically significant improvement in EC50 and/or %Emax
C[C@@H](O)[C@@H]1NC(=O)[C@H](CCCCN)NC(=O)[C@@H](Cc2c[nH]c3ccccc23)NC(=O)[C@H](Cc2ccccc2)NC(=O)[C@H](Cc2ccccc2)NC(=O)[C@H](CCCNC(=N)N)NC(=O)[C@H](NC[C@H](Cc2ccc(O)cc2)NC(=O)CSC[C@@H]2C[C@@H]3c4cccc5[nH]cc(c45)C[C@H]3N(C)C2)CCCCNC(=O)[C@H](Cc2ccc(O)cc2)NC1=O [Compound 33, Dop1-Tyr-psi(CH2NH)-cyclo(DLys-Arg-Phe-Phe-DTrp-Lys-Thr-Tyr)]	51.8 ± 20.6	102 ± 12.5	0.24 ± 0.1	15 ± 2.6	10.4 ± 3.2	0.82 ± 0.4	13.8 ± 5						statistically significant improvement in EC50 and/or %Emax

— patent EP2914280B1, “SOMATOSTATIN-DOPAMINE CHIMERIC ANALOGS” (IPSEN PHARMA S.A.S., priority 2012, dated 2014)
